The values below are quoted from earlier work in patent US20140147381A1, “89ZR COMPOUNDS, TO INCLUDE SOMATOSTATIN, APPARATUS AND PRODUCTS COMPRISING SUCH COMPOUNDS, METHODS OF MAKING SAME, AND METHODS OF USING SAME FOR RADIO IMAGING AND/OR TREATMENT” (priority 2012, published 2014).

A value given as a limit tells only on which side of the number the result lay.

For data set [1] the following is noted: small-animal PET.
The conditions of data set [2]: in vitro.
A further data set relates to carcinoid tumors. The note with it: carcinoid patients.

With [^89Zr]-DFO, the “excreted rapidly via the kidneys within” value in data set [1] was less than 20 min. The “stable with respect to ligand dissociation in human serum” value in data set [2] is on record as more than 7 days.

For Interferon, in the data set with carcinoid tumors, the biochemical response rate is on record as 40% and the tumor response rate was 12%.

Regarding `[Cl][89Zr]([Cl])([Cl])[Cl]` [[^89Zr]-chloride], the site of accumulation entry in data set [1] (free 89Zr(IV) ions) is “accumulate in the liver”.
